The structures appear in SMILES notation.

In this experiment the test system is T1, SpSL (two-domain laccase of Streptomyces puniceus).
T1 construct: TAT signal peptide (1-34) removed: forward primer GGATCC-GAGAAGCCGCCCCG starts the insert at EKPP; pQE-30 (His-tag, cleavage not mentioned), E. coli M15 (pREP4), HisTrap; precursor 344 residues; 110 kDa native homotrimer
Description: oxidation kinetics, nonlinear regression. The experiment is classed as biochemical. Conditions: apparent constant, co-substrate O2. From the text: oxidation kinetics, nonlinear regression on SpSL (two-domain laccase of Streptomyces puniceus)

The mark [1] stands for this setting: pH of kinetics not printed (alkaline optimum).

With `COc1ccccc1O` [2-Methoxyphenol], the Km under setting [1] is 5700 ± 250 µM. With `COc1cccc(OC)c1O` [2,6-Dimethoxyphenol], the Km under setting [1] is 1150 ± 100 µM. For `CCn1c(=NN=c2sc3cc(S(=O)(=O)O)ccc3n2CC)sc2cc(S(=O)(=O)O)ccc21` [ABTS], the Km (pH of kinetics not printed (routine ABTS assay: 20 mM Na-acetate pH 5.0, 420 nm)) amounted to 370 ± 21 µM.

One may read the Km as the concentration of substrate that gives half-maximal velocity.

Source of the values: PMC7500650, “Transformation of low molecular compounds and soil humic acid by two domain laccase of Streptomyces puniceus in the presence of ferulic and caffeic acids” (PLoS ONE, 2020).
